Experimental data from US20230295152A1 (SENDA BIOSCIENCES, INC., priority 2019, published 2023).
Converted amounts (≈) assume the structure as drawn. Like-named read-outs stand apart in the source and are kept apart here.

Key:
[1] = Solubility Determination Assay in PBS pH 1.6 and pH 7.4; format: physicochemical; settings: PBS buffer, aqueous buffer, kinetic from dmso stock
Experimental: The stock solutions of test compounds and control compound progesterone were prepared in DMSO at the concentrations of 10 mM. 15 μL of stock solution (10 mM) of each sample was placed in order into their proper 96-well rack. 485 μL of PBS pH 1.6 and pH 7.4 were added into each vial of the cap-less Solubility Sample plate. The assay was performed in singlet. One stir stick was added to each vial and then the vial was sealed using a molded PTFE/Silicone plug. […] After completion of the 2 hours, plugs were removed and the stir sticks were removed using a big magnet. The samples from the Solubility Sample plate were transferred into the filter plate. Using the Vacuum Manifold, all the samples were filtered. An aliquot of 5 μL was taken from the filtrate followed by addition of 495 μL of a mixture of H2O and acetonitrile containing internal standard (1:1). A certain proportion of ultrapure water was used to dilute the diluent according to the peak shape. The dilution factor was changed according to the solubility values and the LC-MS signal response.
From the 10 mM DMSO STD plate, 6 μL was transferred into the remaining empty plate, and then 194 μL of DMSO were added to that plate to have a STD concentration of 300 μM. From the 300 μM DMSO STD plate, 5 μL were transferred into the remaining empty plate, and then 495 μL of a mixture of H2O and acetonitrile containing internal standard (1:1) were added to that plate to have a final STD concentration of 3 μM. A certain proportion of ultrapure water was used to dilute the diluent according to the peak shape. The concentrations of the standard samples were changed according to the LC-MS signal response.
The plate was placed into the well plate autosampler. The samples were evaluated by LC-MS/MS analysis.
All calculations were carried out using Microsoft Excel.
The filtrate was analyzed and quantified against a standard of known concentration using LC coupled with mass spectral peak identification and quantitation. Solubility values of the test compound and control compound were calculated as follows: […]
Any value of the compounds that was not within the specified limits was rejected and the experiment was repeated.
“+++” indicates a solubility value equal to or greater than 1 μM, “++” indicates a solubility value between 0.1 and 1 μM, and “+” indicates a solubility value less than 0.1 μM.

[2] = Hepatocyte Stability Assay, human; format: in vitro ADME; settings: cryopreserved hepatocytes in suspension; human hepatocytes; read-out: Human hepatocyte clearance
Experimental: • Preparation of working solutions: 10 mM stock solutions of test compound and positive control were prepared in DMSO. In separate conical tubes, the 10 mM solution of test compound and the positive control were diluted to 100 μM by combining 198 μL of 50% acetonitrile/50% water and 2 μL of 10 mM stock.
Preparation of Hepatocytes: Incubation medium (William's E Medium supplemented with GlutaMAX) and hepatocyte thawing medium were placed in a 37° C. water bath and allowed warming for at least 15 minutes prior to use. A vial of cryopreserved hepatocytes was transferred from storage, ensuring that vials remained at cryogenic temperatures until thawing process ensued. Cells were thawed by placing the vial in a 37° C. water bath and gently shaking the vials for 2 minutes. After thawing was completed, vial was sprayed with 70% ethanol and transferred to a biosafety cabinet. Wide-bore pipette tip were used to transfer hepatocytes into 50 mL conical tube containing thawing medium. The 50 mL conical tube were placed into a centrifuge and spun at 100 g for 10 minutes. Upon completion of spin, thawing medium was aspirated and resuspended hepatocytes in enough incubation medium to yield ˜1.5×10^6 cells/mL. Using an AO/PI Staining, cells were counted and the viable cell density was determined. Cells with poor viability (<75% viability) were determined to be not acceptable for use. Cells were diluted with incubation medium to a working cell density of 0.5×10^6 viable cells/mL.
Procedure for Stability Determination: 198 μL of hepatocytes were pipetted into each wells of a 96-well non-coated plate. The plate was placed in the incubator to allow the hepatocytes to warm for 10 minutes. 2 μL of the 100 μM test compound or positive control solutions were pipetted into respective wells of the 96-well non-coated plate to start the reaction. The plate was returned to the incubator for the designed time points. Well contents was transferred in 25 μL aliquots at time points of 0, 15, 30, 60, 90 and 120 minutes. The aliquots were then mixed with 6 volumes (150 μL) of acetonitrile containing internal standard, IS (100 nM alprazolam, 200 nM caffeine and 100 nM tolbutamide) to terminate the reaction. The mixture was vortex for 5 minutes. Samples were centrifuged for 45 minutes at 3,220 g. An aliquot of 100 μL of the supernatant was diluted by 100 μL ultra-pure water, and the mixture was used for LC/MS/MS analysis. All incubations were performed in duplicate.
Data Analysis: All calculations were carried out using Microsoft Excel. Peak areas were determined from extracted ion chromatograms. In vitro half-life (t1/2) of parent compound was determined by regression analysis of the percent parent disappearance vs. time curve.
(§1) The in vitro half-life (in vitro t1/2) was determined from the slope value:
Conversion of the in vitro t1/2 (in min) into the in vitro intrinsic clearance (in vitro CLint, in μL/min/1×10^6 cells) was done using the following equation (mean of duplicate determinations):
V=incubation volume(0.2 mL);
N=number of hepatocytes per well(0.1×10^6 cells).
“+++” indicates a CLint value less than 20 mL/min/Kg, “++” indicates a CLint between 20 and 50 mL/min/Kg, and “+” indicates an CLint above 50 mL/min/Kg.

[3] = Liver Microsome Stability Assay, human; format: in vitro ADME; settings: human liver microsomes
Experimental: Two separate experiments were performed as follows.
With Cofactors (NADPH): 25 μL of 10 mM NADPH was added to the incubations. The final concentrations of microsomes and NADPH were 0.5 mg/mL and 1 mM, respectively. The final concentration of microsomes was 0.5 mg/mL. The mixture was pre-warmed at 37° C. for 10 minutes. The reaction was started with the addition of 2.5 μL of 100 μM control compound or test compound solutions. Verapamil was used as positive control in this study. The final concentration of test compound or control compound was 1 μM. The incubation solution was incubated in water batch at 37° C. Aliquots of 25 μL were taken from the reaction solution at 0.5, 5, 15, 30 and 60 minutes. The reaction was stopped by the addition of 5 volumes of cold acetonitrile with IS (200 nM caffeine and 100 nM tolbutamide). Samples were centrifuged at 3, 220 g for 40 minutes. Aliquot of 100 μL of the supernatant was mixed with 100 μL of ultra-pure H2O and then used for LC-MS/MS analysis.
Data Analysis: All calculations were carried out using Microsoft Excel. Peak areas were determined from extracted ion chromatograms. The slope value, k, was determined by linear regression of the natural logarithm of the remaining percentage of the parent drug vs. incubation time curve.
as §1
Conversion of the in vitro t1/2 (min) into the in vitro intrinsic clearance (in vitro CLint, in μL/min/mg protein) was done using the following equation (mean of duplicate determinations): […]
The calculations of Scaled-up CLint(mL/min/kg), Predicted CLH (mL/min/kg) and EH were done using the following equation:
Scaled-up CLint=(0.693/t1/2)×(1/(microsomal protein concentration(0.5 mg/mL)))×Scaling Factors;Predicted CLH=(QH×Scaled-up CLint×fub)/(QH+Scaled-up CLint×fub);EH=Predicted CLH/QH
where QH is the hepatic blood flow (mL/min/kg) (Table 32), • fub is the fraction of unbound drug in plasma which is assumed to be 1.
“+++” indicates a Clint value less than 10 mL/min/Kg, […] indicates a Clint between 10 and 20 mL/min/Kg, and “+” indicates a Clint above 20 mL/min/Kg.

[4] = target: T1, AHR (Homo sapiens, UniProt P35869); test: DRE-Luciferase Reporter Assay, HepG2 AhR-Lucia reporter cells; format: cell-based; settings: with AHR activating ligand at EC50, read-out: HepG2-Luc IC50
T1 construct: other cell line with a DRE-luciferase reporter stably transfected; endogenous in cells; host or cells: HepG2 AhR-Lucia reporter cells
T1 sequence (P35869 11-848): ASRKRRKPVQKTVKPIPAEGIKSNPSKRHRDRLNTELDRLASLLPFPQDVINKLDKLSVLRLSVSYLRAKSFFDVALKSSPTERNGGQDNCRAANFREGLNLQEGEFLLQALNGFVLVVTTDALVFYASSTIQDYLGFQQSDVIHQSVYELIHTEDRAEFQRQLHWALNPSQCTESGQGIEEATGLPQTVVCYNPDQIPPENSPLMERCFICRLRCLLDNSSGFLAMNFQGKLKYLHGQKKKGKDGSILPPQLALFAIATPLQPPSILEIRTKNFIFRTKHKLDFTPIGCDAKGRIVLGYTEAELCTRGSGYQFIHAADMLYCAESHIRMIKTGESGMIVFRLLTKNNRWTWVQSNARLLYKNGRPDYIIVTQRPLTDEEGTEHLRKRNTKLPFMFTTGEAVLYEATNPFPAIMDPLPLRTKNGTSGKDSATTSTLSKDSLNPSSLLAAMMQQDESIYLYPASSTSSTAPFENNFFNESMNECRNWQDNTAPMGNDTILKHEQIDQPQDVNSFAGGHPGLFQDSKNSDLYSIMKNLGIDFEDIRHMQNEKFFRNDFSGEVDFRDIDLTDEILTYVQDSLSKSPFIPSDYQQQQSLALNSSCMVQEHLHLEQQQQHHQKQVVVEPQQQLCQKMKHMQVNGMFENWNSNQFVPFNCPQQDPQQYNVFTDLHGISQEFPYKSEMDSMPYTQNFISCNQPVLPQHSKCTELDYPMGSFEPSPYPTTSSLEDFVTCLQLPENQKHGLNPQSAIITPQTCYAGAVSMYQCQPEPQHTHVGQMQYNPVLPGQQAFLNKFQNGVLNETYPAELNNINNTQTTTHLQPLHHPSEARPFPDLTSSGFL
How it was run: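 DRE-luciferase reporter cells (e.g. HepG2 AhR-Lucia, 20000 cells) treated with antagonist log dilutions from 100 uM, then an AHR agonist (e.g. TCDD, kynurenine, ITE, FICZ) at its EC50 added after 1 hr. Secreted luciferase measured after 24 or 48 h (QUANTI-Luc); IC50 = concentration halving luciferase activity.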

[5] = PBS pH 1.6, 25° C., read-out: Aq. Solubility at pH = 1.6
[6] = PBS pH 7.4, 25° C., read-out: Aq. Solubility at pH = 7.4

Structure (SMILES)	solubility at 2 h [1, 5] [µM]	solubility at 2 h [1, 6] [µM]	CLint scaled at 1 μM [2] [mL/min/kg]	IC50 [4] [nM]	Human liver microsome clearance [3]
O=c1c2cc(-c3ccc(Cl)cc3)nc(-c3cccnc3)c2ncn1[C@H]1COC[C@H]1O (stereo in doubt) [Compound 70]	≥ 1	≥ 1	< 20	–	–
C[C@H](n1cnc2c(-c3cccnc3)nc(-c3ccc(Cl)cc3)cc2c1=O)C(C)(C)O [Compound 36]	≥ 1	< 0.1	–	< 100	+++ (“+++” indicates a Clint value less than 10 mL/min/Kg)
O=c1c2cc(-c3ccc(OC(F)(F)F)cc3)nc(-c3cccnc3)c2ncn1C[C@@H](O)C(F)(F)F [Compound 123, (R)-8-(pyridin-3-yl)-3-(3,3,3-trifluoro-2-hydroxypropyl)-6-(4-(trifluoromethoxy)phenyl)pyrido[3,4-d]pyrimidin-4(3H)-one]	≥ 1	< 0.1	< 20	–	–
C[C@@H](CO)n1cnc2c(-c3cnn(C)c3)nc(-c3ccc(C(F)(F)F)cn3)cc2c1=O [Compound 150, (S)-3-(1-hydroxypropan-2-yl)-8-(1-methyl-1H-pyrazol-4-yl)-6-(5-(trifluoromethyl)pyridin-2-yl)pyrido[3,4-d]pyrimidin-4(3H)-one]	–	–	< 20	< 100	–

Second part, led by results:

solubility at 2 h [1, 5] [µM]	solubility at 2 h [1, 6] [µM]	CLint scaled at 1 μM [2] [mL/min/kg]	IC50 [4] [nM]	Structure (SMILES)	Human liver microsome clearance [3]
≥ 1	0.1 to 1 (≈ 0.0389 to 0.389 µg/mL)	–	< 100	Cc1ccc(-c2cc3c(=O)n([C@@H](C)CO)cnc3c(-c3cccc(F)c3)n2)cc1 [Compound 48, 8-(3-fluorophenyl)-3-[(1S)-2-hydroxy-1-methyl-ethyl]-6-(p-tolyl)pyrido[3,4-d]pyrimidin-4-one]	+++ (“+++” indicates a Clint value less than 10 mL/min/Kg)
< 0.1	< 0.1	–	< 100	C[C@@H](CO)n1cnc2c(-c3cccc(F)c3)nc(-c3ccc(OC(F)(F)F)cc3)cc2c1=O [Compound 49, 8-(3-fluorophenyl)-3-[(1S)-2-hydroxy-1-methyl-ethyl]-6-[4-(trifluoromethoxy)phenyl]pyrido[3,4-d]pyrimidin-4-one]	+++ (“+++” indicates a Clint value less than 10 mL/min/Kg)
